In ChEMBL document CHEMBL1201862, “PubChem BioAssay data set” (2004):
Active and inactive are the calls of the source.

Tests used:
[1] = target: T1, Heat shock factor protein 1 (Mus musculus, UniProt P38532); test: HSF1 potentiators in luciferase reporter cells, confirmation, cell-based, NIH3T3, luminescence, dose retest (AID 435004); type: functional;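 further: stress induced by proteasome inhibitor MG132 added 30 min after compound; luciferase reporter driven by HSF1 response element in NIH3T3 cells; actives raise luminescence as potentiators of the MG132 stress response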
T1 sequence (P38532 whole entry): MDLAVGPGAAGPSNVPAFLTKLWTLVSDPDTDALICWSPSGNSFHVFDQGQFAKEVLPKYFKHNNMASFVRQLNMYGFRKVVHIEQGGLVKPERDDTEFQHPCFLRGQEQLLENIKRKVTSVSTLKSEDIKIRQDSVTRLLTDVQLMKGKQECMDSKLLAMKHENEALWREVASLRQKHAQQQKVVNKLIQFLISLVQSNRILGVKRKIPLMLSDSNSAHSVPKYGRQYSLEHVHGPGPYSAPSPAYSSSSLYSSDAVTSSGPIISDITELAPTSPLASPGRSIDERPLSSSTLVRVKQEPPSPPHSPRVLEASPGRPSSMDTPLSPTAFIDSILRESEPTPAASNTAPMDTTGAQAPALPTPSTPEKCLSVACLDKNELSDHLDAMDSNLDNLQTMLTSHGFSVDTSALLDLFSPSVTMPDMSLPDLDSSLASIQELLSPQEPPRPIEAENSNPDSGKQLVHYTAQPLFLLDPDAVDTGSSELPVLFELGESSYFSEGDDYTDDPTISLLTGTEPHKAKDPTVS

[2] = HepG2 cell cytotoxicity, dose response, cytotoxicity control for Shn3 inhibitor project, CellTiter-Glo, cherry-picked (AID 624134); type: functional, cell-based
[3] = tested on: HEK293; test: cells; details: Homo sapiens
[4] = Shn3 3'UTR reporter inhibitors, dose response, cell-based, Clone20 osteoblasts, firefly luciferase, cherry-picked (AID 624132); type: functional;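 further: firefly luciferase luminescence from reporter carrying the Shn3 3'UTR in osteoblasts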
[5] = HEK293T cell cytotoxicity, dose response, cytotoxicity control for HIV Vif inhibitor project, cherry-picks (AID 652208); type: functional, cell-based
[6] = cells; type: functional, cell-based
[7] = cells; type: functional, cell-based; remark: listed apart in the source
[8] = control 3'UTR Renilla luciferase suppression, dose response, counter-screen for Shn3 inhibitor project, cell-based, Clone20-Shn3RL, cherry-picked (AID 624133); type: functional
[9] = target: X-box-binding protein 1 (Homo sapiens, UniProt P17861); type: functional, Cricetulus griseus;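 further: confirmatory dose-response counter-screen serving a CHOP assay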
[10] = tested on: BJ; test: cytotoxicity toward Ras-transformed BJeLR fibroblasts, dose response, cell-based, alamar blue fluorescence, cherrypicked samples (AID 2631); type: functional; details: Homo sapiens;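 further: confirmatory dose-response assay in RAS-dependent BJ fibroblasts engineered with TERT, LT and ST, with cytotoxicity read by fluorescence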
[11] = tested on: HEK293; test: cells; details: Homo sapiens; remark: listed apart in the source
[12] = target: Peroxisome proliferator-activated receptor gamma/Nuclear receptor coactivator 1 (Homo sapiens, UniProt P37231); type: functional;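 further: agonist potency as compounds enhance coactivator SRC-1 recruitment to PPARgamma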
[13] = growth suppression of PTEN-null colon cells, dose response, cell-based, HCT116 PTEN knockout (AID 1047); type: functional;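 further: HCT116 colon tumor cells with PTEN knocked out; cells exposed to compound for 60 hours before readout; potency for loss of cell viability measured by luminescence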
[14] = target: Peroxisome proliferator-activated receptor gamma/Nuclear receptor coactivator 2 (Homo sapiens, UniProt P37231); type: functional;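 further: agonist potency for raising coactivator recruitment to the receptor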
[15] = growth suppression of beta-catenin-knockout colon cells, dose response, cell-based, HCT116, human colon tumor (AID 1045); type: functional;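 further: HCT116 colon tumor cells with beta catenin knocked out; cells exposed to compound for 60 hours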
[16] = target: T2, Beta-2 adrenergic receptor (Homo sapiens, UniProt P07550); test: Dose response for HTS for Beta-2AR agonists via FAP method from Powderset3.; type: functional
[17] = target: T2, Beta-2 adrenergic receptor; test: beta2AR agonists driving receptor internalization, dose response, cell-based, FAP fluorogen, flow cytometry, cherry pick 1 (AID 588763); type: functional
[18] = target: Peroxisome proliferator-activated receptor gamma/Nuclear receptor coactivator 3 (Homo sapiens, UniProt P37231); type: functional;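 further: agonist potency for raising coactivator recruitment to the receptor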
[19] = target: T2, Beta-2 adrenergic receptor; test: Dose response for HTS for Beta-2AR agonists via FAP method from Powderset1.; type: functional
[20] = target: T3, Tyrosine-protein phosphatase non-receptor type 7 (Homo sapiens, UniProt P35236); test: inhibitors of human HePTP phosphatase, […], biochemical, absorbance, leukemia target (AID 521); type: functional
T3 sequence (P35236 whole entry): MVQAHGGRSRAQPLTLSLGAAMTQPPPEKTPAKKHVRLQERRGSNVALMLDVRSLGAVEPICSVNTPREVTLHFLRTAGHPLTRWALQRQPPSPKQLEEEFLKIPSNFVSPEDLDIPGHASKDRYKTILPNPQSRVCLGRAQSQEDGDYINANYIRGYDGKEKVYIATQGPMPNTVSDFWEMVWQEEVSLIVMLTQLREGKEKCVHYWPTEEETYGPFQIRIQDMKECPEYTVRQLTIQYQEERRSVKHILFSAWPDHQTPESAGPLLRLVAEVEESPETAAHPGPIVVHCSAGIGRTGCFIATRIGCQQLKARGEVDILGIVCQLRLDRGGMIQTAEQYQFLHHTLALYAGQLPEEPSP

[21] = target: Cytochrome P450 2C9 (Homo sapiens, UniProt P11712)
[22] = target: Protein-tyrosine kinase 2-beta (Homo sapiens, UniProt Q14289);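 further: potency of inhibitors of PYK2 kinase phosphorylation of poly-GT substrate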
[23] = target: Tyrosine-protein phosphatase non-receptor type 11 (Homo sapiens, UniProt Q06124); test: SHP2 phosphatase inhibition, dose response, selectivity assay for STEP inhibitor project, biochemical (AID 602367); type: functional; details: read-out: IC50_Mean
[24] = target: Dual specificity protein phosphatase 3 (Homo sapiens, UniProt P51452); test: VHR phosphatase inhibition, dose response, selectivity assay for STEP inhibitor project, biochemical (AID 602374); type: functional; details: read-out: IC50_Mean
[25] = target: Tyrosine-protein phosphatase non-receptor type 5 (Homo sapiens, UniProt P54829); test: STEP phosphatase inhibitors, confirmation, biochemical, fluorescence intensity, uHTS hits (AID 602372); type: functional; details: read-out: IC50_Mean
[26] = cytotoxicity toward DRD oncogenic fibroblasts, dose response, cell-based, non-viral oncogenic, luminescence (AID 1934); type: functional; details: Homo sapiens
[27] = target: Nuclear receptor subfamily 0 group B member 1 (Homo sapiens, UniProt P51843); type: functional, cell-based;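 further: HEK293T cells transfected with SF-1 and DAX-1 plus StAR promoter luciferase reporter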
[28] = tested on: BJ; test: cytotoxicity toward BJ-TERT-LT-ST fibroblasts, dose response, cell-based, RAS-independent, luminescence (AID 1935); type: functional; details: Homo sapiens;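 further: BJ fibroblasts immortalized with TERT plus LT and ST oncogenes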
[29] = tested on: BJ; test: cells; type: functional, cell-based; details: Homo sapiens
[30] = target: Paired box protein Pax-8 (Homo sapiens, UniProt Q06710); test: inhibitors of PAX8-driven TPO luciferase reporter, dose response, RMG-I cells, cherry-pick (AID 687027); type: functional, cell-based;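 further: luciferase reporter driven by Pax8 target thyroperoxidase promoter measured by SteadyGlo luminescence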
[31] = cells; type: functional, cell-based; remark: listed apart in the source
[32] = tested on: BJ; test: cytotoxicity toward BJ-TERT fibroblasts, dose response, cell-based, RAS-independent, luminescence (AID 1933); type: functional; details: Homo sapiens
[33] = target: ADP-ribosylation factor GTPase-activating protein 1 (Rattus norvegicus, UniProt Q62848); test: Fluorescence polarization-based biochemical high throughput dose response screening assay to identify inhibitors of ADP-ribosylation factor GTPase activating protein 1 (ARFGAP1).; type: functional
[34] = target: T4, Sentrin-specific protease 8 (Homo sapiens, UniProt Q96LD8); type: functional
T4 sequence (Q96LD8 whole entry): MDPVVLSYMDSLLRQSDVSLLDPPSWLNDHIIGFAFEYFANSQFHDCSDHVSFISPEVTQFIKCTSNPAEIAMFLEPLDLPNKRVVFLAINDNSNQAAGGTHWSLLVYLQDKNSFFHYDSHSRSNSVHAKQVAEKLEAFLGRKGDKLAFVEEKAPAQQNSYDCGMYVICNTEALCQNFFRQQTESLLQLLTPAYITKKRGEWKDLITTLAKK

[35] = target: T4, Sentrin-specific protease 8; type: functional; remark: listed apart in the source

T2 sequence (P07550 whole entry): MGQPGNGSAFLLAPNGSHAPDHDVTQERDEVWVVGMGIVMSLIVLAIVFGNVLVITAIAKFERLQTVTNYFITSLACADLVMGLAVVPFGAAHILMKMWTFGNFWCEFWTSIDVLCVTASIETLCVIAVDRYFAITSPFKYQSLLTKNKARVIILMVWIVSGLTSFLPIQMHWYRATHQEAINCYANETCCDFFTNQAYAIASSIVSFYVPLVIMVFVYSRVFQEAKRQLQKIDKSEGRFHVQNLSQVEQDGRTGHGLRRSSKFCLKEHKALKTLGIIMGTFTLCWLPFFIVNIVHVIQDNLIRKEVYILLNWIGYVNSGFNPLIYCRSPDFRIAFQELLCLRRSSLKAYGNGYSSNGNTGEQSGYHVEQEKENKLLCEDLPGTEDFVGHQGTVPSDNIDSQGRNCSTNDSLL
Sequence of Tyrosine-protein phosphatase non-receptor type 11 (Q06124 whole entry): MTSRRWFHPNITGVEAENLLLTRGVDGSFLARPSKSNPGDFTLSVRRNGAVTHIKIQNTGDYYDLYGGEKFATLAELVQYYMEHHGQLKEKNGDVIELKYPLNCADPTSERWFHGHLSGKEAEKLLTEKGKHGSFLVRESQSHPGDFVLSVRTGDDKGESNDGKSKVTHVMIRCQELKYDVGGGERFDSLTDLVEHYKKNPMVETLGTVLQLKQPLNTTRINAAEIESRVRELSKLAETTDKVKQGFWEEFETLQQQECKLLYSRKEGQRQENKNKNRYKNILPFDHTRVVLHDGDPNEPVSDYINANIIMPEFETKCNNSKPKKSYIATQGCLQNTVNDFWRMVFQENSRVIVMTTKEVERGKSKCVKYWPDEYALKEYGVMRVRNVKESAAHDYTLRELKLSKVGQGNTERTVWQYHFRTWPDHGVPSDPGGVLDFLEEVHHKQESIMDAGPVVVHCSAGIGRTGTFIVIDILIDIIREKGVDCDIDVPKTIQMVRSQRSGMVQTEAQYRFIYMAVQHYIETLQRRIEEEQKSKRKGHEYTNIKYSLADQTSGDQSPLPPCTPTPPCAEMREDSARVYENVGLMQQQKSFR
Sequence of Paired box protein Pax-8 (Q06710 whole entry): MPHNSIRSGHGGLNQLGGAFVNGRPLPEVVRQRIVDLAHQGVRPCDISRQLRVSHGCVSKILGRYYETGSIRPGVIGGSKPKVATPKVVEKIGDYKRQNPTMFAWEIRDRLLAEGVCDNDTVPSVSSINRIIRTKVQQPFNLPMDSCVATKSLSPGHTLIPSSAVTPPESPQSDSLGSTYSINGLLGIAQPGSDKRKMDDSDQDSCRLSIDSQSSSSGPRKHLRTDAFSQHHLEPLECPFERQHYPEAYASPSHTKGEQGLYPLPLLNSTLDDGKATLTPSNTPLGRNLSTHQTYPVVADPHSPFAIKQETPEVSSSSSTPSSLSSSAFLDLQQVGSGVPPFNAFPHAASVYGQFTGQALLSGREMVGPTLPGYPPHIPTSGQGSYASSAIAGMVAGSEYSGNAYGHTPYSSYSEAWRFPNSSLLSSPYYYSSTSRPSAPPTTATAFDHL
Sequence of Tyrosine-protein phosphatase non-receptor type 5 (P54829 whole entry): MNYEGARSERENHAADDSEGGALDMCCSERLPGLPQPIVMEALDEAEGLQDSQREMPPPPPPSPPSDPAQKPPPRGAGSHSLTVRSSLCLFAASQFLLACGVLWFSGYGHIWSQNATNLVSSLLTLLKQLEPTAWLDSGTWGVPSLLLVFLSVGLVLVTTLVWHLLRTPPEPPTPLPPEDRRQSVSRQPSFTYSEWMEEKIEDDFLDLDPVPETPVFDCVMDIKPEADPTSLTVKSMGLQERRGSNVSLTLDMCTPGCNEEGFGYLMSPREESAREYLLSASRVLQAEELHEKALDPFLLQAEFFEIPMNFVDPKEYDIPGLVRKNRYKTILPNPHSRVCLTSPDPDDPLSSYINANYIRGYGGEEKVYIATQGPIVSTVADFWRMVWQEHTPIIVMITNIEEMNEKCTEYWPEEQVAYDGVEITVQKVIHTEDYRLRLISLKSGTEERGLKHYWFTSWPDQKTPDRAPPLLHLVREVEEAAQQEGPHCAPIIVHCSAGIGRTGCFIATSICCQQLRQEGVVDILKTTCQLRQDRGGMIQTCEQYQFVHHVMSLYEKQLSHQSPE
Sequence of Nuclear receptor subfamily 0 group B member 1 (P51843 whole entry): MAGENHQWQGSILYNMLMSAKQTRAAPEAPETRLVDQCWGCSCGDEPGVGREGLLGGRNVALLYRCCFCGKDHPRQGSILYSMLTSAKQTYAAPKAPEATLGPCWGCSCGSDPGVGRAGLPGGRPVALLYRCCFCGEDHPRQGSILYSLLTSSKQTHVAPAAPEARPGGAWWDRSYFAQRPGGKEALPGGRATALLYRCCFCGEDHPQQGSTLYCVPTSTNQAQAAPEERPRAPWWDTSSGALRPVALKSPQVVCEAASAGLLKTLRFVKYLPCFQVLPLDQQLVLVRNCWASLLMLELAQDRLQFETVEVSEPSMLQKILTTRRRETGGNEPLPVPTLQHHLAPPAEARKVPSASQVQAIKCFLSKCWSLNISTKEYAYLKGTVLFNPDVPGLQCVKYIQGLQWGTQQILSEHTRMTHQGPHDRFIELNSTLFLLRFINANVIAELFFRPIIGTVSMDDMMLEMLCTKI
Sequence of Peroxisome proliferator-activated receptor gamma/Nuclear receptor coactivator 3 (P37231 whole entry): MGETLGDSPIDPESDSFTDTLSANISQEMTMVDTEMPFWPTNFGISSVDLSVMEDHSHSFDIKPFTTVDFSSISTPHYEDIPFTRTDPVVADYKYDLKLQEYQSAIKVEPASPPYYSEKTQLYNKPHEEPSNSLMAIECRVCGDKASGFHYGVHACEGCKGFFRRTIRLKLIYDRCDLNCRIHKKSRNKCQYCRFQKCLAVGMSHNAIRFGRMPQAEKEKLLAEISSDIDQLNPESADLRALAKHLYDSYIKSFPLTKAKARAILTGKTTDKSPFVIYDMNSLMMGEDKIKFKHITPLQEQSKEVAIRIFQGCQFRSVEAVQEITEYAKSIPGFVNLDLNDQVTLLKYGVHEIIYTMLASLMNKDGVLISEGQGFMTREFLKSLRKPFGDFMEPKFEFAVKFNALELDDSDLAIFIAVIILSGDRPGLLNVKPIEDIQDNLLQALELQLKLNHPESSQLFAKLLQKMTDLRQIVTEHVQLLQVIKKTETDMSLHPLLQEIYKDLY
Sequence of Peroxisome proliferator-activated receptor gamma/Nuclear receptor coactivator 3 (Q9Y6Q9 whole entry, further chain): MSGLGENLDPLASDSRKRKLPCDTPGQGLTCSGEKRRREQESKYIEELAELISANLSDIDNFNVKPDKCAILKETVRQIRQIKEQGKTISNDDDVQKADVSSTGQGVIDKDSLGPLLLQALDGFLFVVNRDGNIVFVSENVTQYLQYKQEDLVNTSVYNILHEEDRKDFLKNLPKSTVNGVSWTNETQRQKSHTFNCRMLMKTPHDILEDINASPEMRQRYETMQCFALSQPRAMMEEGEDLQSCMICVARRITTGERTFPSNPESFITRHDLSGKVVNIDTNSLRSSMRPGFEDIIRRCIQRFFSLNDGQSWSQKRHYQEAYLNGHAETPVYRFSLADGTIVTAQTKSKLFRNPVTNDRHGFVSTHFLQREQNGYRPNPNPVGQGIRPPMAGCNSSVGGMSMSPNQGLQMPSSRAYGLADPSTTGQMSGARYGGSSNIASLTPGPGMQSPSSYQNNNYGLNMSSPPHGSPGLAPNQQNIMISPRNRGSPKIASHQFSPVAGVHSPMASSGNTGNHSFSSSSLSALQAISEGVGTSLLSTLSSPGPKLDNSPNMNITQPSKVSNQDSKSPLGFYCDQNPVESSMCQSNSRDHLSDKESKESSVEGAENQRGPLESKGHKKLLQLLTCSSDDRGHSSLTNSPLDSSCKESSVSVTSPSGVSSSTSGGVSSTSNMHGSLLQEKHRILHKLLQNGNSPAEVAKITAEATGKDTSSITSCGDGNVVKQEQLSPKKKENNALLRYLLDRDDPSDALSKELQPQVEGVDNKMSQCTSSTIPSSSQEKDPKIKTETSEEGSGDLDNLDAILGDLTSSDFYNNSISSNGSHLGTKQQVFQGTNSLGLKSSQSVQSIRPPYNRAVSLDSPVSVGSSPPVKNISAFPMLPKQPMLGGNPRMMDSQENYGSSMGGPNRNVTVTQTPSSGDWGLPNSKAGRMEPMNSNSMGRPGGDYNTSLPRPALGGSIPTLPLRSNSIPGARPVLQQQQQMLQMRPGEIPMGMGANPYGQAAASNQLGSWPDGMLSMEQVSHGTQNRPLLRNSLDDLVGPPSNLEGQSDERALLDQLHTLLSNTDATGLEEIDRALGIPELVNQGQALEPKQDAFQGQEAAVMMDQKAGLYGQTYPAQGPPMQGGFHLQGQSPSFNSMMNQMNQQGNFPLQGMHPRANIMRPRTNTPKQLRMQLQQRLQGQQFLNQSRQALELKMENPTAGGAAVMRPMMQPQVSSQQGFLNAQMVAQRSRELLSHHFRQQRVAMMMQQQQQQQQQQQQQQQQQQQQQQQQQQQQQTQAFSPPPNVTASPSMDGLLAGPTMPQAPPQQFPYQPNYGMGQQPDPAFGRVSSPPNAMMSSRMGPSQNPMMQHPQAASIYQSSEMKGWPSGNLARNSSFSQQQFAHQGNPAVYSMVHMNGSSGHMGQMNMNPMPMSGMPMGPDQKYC
Sequence of ADP-ribosylation factor GTPase-activating protein 1 (Q62848 whole entry): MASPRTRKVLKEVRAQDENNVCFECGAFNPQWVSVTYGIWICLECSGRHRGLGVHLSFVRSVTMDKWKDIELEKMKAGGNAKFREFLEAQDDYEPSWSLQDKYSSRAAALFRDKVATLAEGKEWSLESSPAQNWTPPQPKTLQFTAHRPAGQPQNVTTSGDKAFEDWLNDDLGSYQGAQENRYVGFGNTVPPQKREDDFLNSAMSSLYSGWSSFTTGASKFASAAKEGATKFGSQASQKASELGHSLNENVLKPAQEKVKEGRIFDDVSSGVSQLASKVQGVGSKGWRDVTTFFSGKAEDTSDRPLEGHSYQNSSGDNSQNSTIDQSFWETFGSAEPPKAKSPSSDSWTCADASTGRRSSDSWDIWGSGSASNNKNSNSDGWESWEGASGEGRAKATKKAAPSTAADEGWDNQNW
Sequence of Dual specificity protein phosphatase 3 (P51452 whole entry): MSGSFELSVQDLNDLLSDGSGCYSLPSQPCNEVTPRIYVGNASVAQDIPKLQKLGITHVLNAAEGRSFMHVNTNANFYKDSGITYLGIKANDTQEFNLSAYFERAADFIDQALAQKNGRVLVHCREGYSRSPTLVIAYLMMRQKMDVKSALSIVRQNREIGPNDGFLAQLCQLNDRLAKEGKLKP

Cc1cc(Cl)n2c(nc3cc(F)c(F)cc32)c1C#N
EC50 [1]: 3.35 µM (active) | AC50 [2]: 14.8 µM (active) | EC50 [3]: > 59.6 µM (inactive) | AC50 [4]: 3.56 µM (active) | AC50 [5]: 4.49 µM (active) | EC50 [6]: > 350 µM (not active) | EC50 [7]: 54.5 µM (active) | AC50 [8]: 6.62 µM (active) | Absolute IC50 (XBP1) [9]: 10 µM | EC50 [10]: 0.139 µM (inconclusive) | EC50 [11]: > 59.6 µM (inactive)

CC(C)Cc1nc2sc3c(NCc4ccco4)ncnc3c2c2c1COC(C)(C)C2
EC50 [12]: > 79.4 µM (not active) | EC50 [13]: 14.3 µM (active) | EC50 [14]: > 79.4 µM (not active) | EC50 [15]: 14 µM (active) | EC50 [16]: 0.0238 µM (active) | EC50 [17]: 0.615 µM (active) | EC50 [18]: > 79.4 µM (not active)

CCc1ccc(OCC(=O)Nc2ccc(-c3nc4ccccc4o3)c(O)c2)cc1
EC50 [19]: 0.261 µM (active) | IC50 [20]: 5.28 µM (active) | AC50 [21]: inconclusive | IC50 [22]: > 69.5 µM (not active) | IC50 [23]: 0.368 µM (active) | IC50 [24]: 0.767 µM (active) | IC50 [25]: 3.98 µM (active) | EC50 [17]: 0.476 µM (active)

CCOC(=O)N1CCC(NC(=O)c2ccc3c(c2)N=C(C)c2c(C)ccc(C)c2S3)CC1
EC50 [26]: 1.12 µM (active) | IC50 [27]: > 67.5 µM (inactive) | EC50 [28]: 1.43 µM (active) | EC50 [29]: 29.3 µM (active) | AC50 [30]: 3.05 µM (active) | IC50 [31]: > 67.5 µM (inactive) | EC50 [32]: 1.52 µM (active)

COc1ccc(NC(=O)Cn2nnc(C(=O)Nc3ccc(F)c(Cl)c3)c2N)cc1
IC50 [33]: 53.1 µM (inactive)

COc1ccc(S(=O)(=O)Oc2ccc3cccc(N)c3c2)cc1
IC50 [34]: 9.11 µM (active) | IC50 [35]: 19.6 µM (active)
